Source: ChEMBL document CHEMBL4393667, “Discovery of [1,2,4]Triazolo[4,3- a]pyridines as Potent Inhibitors Targeting the Programmed Cell Death-1/Programmed Cell Death-Ligand 1 Interaction” (J Med Chem, 2019)

molecular target: T1, Programmed cell death protein 1/Programmed cell death 1 ligand 1 (Homo sapiens, UniProt Q15116+Q9NZQ7); experiment: Inhibition of human PD1/PDL1 protein-protein interaction after 15 mins by HTRF assay; type: protein-complex assay
T1 sequence (Q15116 whole entry): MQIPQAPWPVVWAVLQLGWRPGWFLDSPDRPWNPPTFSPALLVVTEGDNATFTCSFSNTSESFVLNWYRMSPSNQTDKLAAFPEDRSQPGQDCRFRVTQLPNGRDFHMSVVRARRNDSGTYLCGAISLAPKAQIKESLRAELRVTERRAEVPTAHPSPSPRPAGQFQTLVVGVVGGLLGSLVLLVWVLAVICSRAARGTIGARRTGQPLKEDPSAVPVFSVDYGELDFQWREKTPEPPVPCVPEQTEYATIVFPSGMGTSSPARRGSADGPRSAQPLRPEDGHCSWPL
T1 sequence (Q9NZQ7 whole entry): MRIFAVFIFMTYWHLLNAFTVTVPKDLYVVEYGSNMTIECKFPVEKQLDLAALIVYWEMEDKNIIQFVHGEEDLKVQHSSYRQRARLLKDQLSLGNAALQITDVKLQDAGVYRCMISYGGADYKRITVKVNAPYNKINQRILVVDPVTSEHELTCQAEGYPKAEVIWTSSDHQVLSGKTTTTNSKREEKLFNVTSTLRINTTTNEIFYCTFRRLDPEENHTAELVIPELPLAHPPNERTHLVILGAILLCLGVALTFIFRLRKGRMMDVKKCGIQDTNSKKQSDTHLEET

`Cc1c(NC(=O)c2ccc(CN(C)CCO)n3cnnc23)cccc1-c1ccccc1` and `Cc1c(NC(=O)c2ccc(CNCCO)n3cnnc23)cccc1-c1ccccc1` cannot be ordered by IC50: > 10000 nM for the first, > 10000 nM for the second.

Compared with `Cc1c(NC(=O)c2cc(CN(C)CCO)cn3cnnc23)cccc1-c1ccc2c(c1)OCCO2`, `Cc1c(NC(=O)c2cc(CN(C)CC(O)CO)cn3cnnc23)cccc1-c1ccc2c(c1)OCCO2` (stereo unspecified) is 2-fold higher in IC50: 238 nM for the first, 474 nM for the second. The first is the more potent here.

First: Cc1c(NC(=O)c2cc(CN(C)CCO)cn3ccnc23)cccc1-c1ccccc1
Second: Cc1c(NC(=O)c2cc(CN(C)CCO)cn3cnnc23)cccc1-c1ccccc1
The IC50 of the first is higher: > 10000 nM for the first, 755 nM for the second. The second is the more potent here.

Going from `Cc1c(NC(=O)c2cc(CNCCO)cn3c(C)nnc23)cccc1-c1ccccc1` to `Cc1c(NC(=O)c2cc(CNCCO)cn3cnnc23)cccc1-c1ccccc1`, the IC50 falls from > 10000 nM to 733 nM.

`CS(=O)(=O)NCCNCc1cc(C(=O)Nc2cccc(-c3ccc4c(c3)OCCO4)c2C#N)c2nncn2c1` and `Cc1c(NC(=O)c2cc(CNCCNS(C)(=O)=O)cn3cnnc23)cccc1-c1ccc2c(c1)OCCO2` are within 1.5-fold of each other in IC50: 983 nM for the first, 988 nM for the second.

First: Cc1c(NC(=O)c2cc(CN(C)CC(O)CO)cn3cnnc23)cccc1-c1ccccc1 (stereo unspecified)
Second: Cc1c(NC(=O)c2cc(CN[C@H](CO)C(=O)O)cn3cnnc23)cccc1-c1ccccc1
The IC50 of the first is 15-fold lower: 375 nM for the first, 5570 nM for the second. The first is the more potent here.

First: CC(=O)NCCNCc1cc(C(=O)Nc2cccc(-c3ccc4c(c3)OCCO4)c2C#N)c2nncn2c1
Second: CC(=O)NCCNCc1cc(C(=O)Nc2cccc(-c3ccc4c(c3)OCCO4)c2C)c2nncn2c1
The IC50 of the first is 1.5-fold lower: 367 nM for the first, 566 nM for the second. The first is the more potent here.

First: Cc1c(NC(=O)c2cc(CNCC(N)=O)cn3cnnc23)cccc1-c1ccccc1
Second: COC(=O)CNCc1cc(C(=O)Nc2cccc(-c3ccccc3)c2C)c2nncn2c1
The IC50 of the first is lower: 2940 nM for the first, > 10000 nM for the second. The first is the more potent here.

First: Cc1c(NC(=O)c2cc(CNCCS(N)(=O)=O)cn3cnnc23)cccc1-c1ccc2c(c1)OCCO2
Second: N#Cc1c(NC(=O)c2cc(CNCCO)cn3cnnc23)cccc1-c1ccc2c(c1)OCCO2
The IC50 of the first is 13-fold higher: 3690 nM for the first, 275 nM for the second. The second is the more potent here.

`Cc1c(NC(=O)c2cc(CNCCO)cn3ccnc23)cccc1-c1ccccc1` and `CC(=O)NCCNCc1cc(C(=O)Nc2cccc(-c3ccccc3)c2C)c2nccn2c1` cannot be ordered by IC50: > 10000 nM for the first, > 10000 nM for the second.

Going from `Cc1c(NC(=O)c2cc(CN3CCN(C)CC3)cn3c(C)nnc23)cccc1-c1ccccc1` to `Cc1c(NC(=O)c2cc(CN3CCN(C)CC3)cn3cnnc23)cccc1-c1ccccc1`, the IC50 falls from > 10000 nM to 1350 nM. The second is the more potent here.

Compared with `COC(=O)[C@@H]1CCCCN1Cc1cc(C(=O)Nc2cccc(-c3ccccc3)c2C)c2nncn2c1`, `Cc1c(NC(=O)c2cc(CN3CCCC[C@H]3C(=O)O)cn3cnnc23)cccc1-c1ccccc1` is lower in IC50: > 10000 nM for the first, 5130 nM for the second. The second is the more potent here.

Going from `Cc1c(NC(=O)c2cc(CNCCS(N)(=O)=O)cn3cnnc23)cccc1-c1ccccc1` to `CC(=O)NCCNCc1cc(C(=O)Nc2cccc(-c3ccccc3)c2C)c2nncn2c1`, the IC50 rises from 834 nM to 1490 nM (1.8-fold).

Compared with `CN(Cc1cc(C(=O)Nc2cccc(-c3ccc4c(c3)OCCO4)c2C#N)c2nncn2c1)CC(O)CO` (stereo unspecified), `COC(=O)[C@@H](CO)NCc1cc(C(=O)Nc2cccc(-c3ccccc3)c2C)c2nncn2c1` is higher in IC50: 486 nM for the first, > 10000 nM for the second. The first is the more potent here.

Compared with `Cc1c(NC(=O)c2cc(CN[C@H]3CC[C@H](O)CC3)cn3cnnc23)cccc1-c1ccccc1`, `CC(=O)NCCNCc1ccc(C(=O)Nc2cccc(-c3ccccc3)c2C)c2nncn12` is higher in IC50: 968 nM for the first, > 10000 nM for the second.

molecular target: T1, Programmed cell death protein 1/Programmed cell death 1 ligand 1; experiment: Inhibition of human PD1/PDL1 protein-protein interaction in human PBMC-derived CD3-positive T cells co-cultured with human Hep3B cells expressing PDL1/OS-8 assessed as increase in IFNgamma secretion measured after 3 days

For `Cc1c(NC(=O)c2cc(CNCCO)cn3cnnc23)cccc1-c1ccc2c(c1)OCCO2`, the inhibition was “Dose-dependent effect”.
